Measured values as given in patent US10669272B2, “Substituted naphthyridinone compounds useful as T cell activators” (BRISTOL-MYERS SQUIBB COMPANY, priority 2018, dated 2020).
Like-named read-outs stand apart in the source and are kept apart here.

Columns and labels:
[1] = target: T1, human DGKζ (Homo sapiens, UniProt Q13574); test: DGKζ LIPGLO assay (extruded liposome substrate), in vitro DGK inhibition; assay type: biochemical; details: read-out: DGKz LIPGLO IC50
T1 construct: TVMV protease cleavage site (C); Hexa-His (C); made in house; host or cells: Sf9 insect cells (baculovirus, Bac-to-Bac)
T1 sequence (Q13574 with tags, fused parts or gaps isoform Q13574-4): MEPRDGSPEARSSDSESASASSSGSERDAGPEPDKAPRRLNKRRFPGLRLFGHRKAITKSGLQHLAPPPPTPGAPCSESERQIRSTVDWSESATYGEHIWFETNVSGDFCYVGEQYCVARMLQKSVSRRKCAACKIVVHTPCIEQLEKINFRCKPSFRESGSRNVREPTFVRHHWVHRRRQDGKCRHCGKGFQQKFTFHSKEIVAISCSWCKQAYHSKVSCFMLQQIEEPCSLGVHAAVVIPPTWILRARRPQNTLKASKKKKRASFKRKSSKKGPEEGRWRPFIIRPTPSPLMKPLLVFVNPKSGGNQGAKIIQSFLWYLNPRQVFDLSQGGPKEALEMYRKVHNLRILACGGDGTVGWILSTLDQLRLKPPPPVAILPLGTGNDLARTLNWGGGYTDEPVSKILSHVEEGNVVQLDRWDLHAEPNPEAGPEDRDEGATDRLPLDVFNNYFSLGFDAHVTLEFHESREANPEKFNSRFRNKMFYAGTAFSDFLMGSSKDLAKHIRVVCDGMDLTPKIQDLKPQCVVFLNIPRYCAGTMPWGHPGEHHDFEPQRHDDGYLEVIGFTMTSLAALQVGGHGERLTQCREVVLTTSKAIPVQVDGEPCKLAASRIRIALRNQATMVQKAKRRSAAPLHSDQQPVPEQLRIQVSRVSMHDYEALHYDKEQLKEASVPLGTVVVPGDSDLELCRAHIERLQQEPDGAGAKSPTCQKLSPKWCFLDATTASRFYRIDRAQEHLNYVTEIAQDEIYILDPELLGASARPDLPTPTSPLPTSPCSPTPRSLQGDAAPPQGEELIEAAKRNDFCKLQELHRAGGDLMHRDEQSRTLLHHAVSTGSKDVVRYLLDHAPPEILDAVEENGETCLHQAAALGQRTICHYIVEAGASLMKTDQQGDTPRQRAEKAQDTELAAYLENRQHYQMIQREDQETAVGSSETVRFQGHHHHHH

[2] = system: Human venous whole blood; test: Human whole blood IFN-γ assay; assay type: cell-based; details: human whole blood, read-out: INFg Whole Blood Normalized Agonist EC50;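 note: blood from healthy donors exposed to compound for 1 h before stimulation with anti-CD3 and anti-CD28 at 1 µg/mL each, IFN-γ quantified in supernatant by AlphaLISA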
[3] = target: T2, human DGKα (Homo sapiens, UniProt P23743); test: DGKα LIPGLO assay (extruded liposome substrate), in vitro DGK inhibition; assay type: biochemical; details: read-out: DGKa LIPGLO IC50
T2 construct: TVMV protease cleavage site (C); Hexa-His (C); made in house; host or cells: Sf9 insect cells (baculovirus, Bac-to-Bac)
T2 sequence (P23743 with tags, fused parts or gaps): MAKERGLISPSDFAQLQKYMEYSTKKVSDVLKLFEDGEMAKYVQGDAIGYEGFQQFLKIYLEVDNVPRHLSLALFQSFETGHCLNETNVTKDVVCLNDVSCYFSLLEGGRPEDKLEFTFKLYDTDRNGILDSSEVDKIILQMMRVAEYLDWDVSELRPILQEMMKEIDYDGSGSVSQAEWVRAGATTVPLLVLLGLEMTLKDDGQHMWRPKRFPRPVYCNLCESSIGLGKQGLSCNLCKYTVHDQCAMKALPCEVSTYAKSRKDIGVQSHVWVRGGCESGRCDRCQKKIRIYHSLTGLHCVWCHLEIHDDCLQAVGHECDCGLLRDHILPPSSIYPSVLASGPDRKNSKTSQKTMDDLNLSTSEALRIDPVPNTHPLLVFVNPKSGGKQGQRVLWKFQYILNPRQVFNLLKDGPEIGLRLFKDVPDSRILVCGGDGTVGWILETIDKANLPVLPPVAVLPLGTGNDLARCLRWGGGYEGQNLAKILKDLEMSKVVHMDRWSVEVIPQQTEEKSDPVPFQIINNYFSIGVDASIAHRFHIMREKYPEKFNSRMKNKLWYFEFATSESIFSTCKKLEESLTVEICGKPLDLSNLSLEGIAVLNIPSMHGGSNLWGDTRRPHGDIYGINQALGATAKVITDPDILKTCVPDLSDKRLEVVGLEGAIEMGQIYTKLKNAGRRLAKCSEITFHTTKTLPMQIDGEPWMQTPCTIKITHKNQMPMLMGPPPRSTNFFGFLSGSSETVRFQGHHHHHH

[4] = Homo sapiens, 24 h, anti-CD3 plus anti-CD28, 24 hours, 3 μM reference compound = 100% activation
[5] = anti-CD3 plus anti-CD28, 24 hours, 3 μM reference compound = 100% activation
[6] = Homo sapiens, 24 h, normalized to 3 μM reference compound with anti-CD3 plus anti-CD28 as 100% activation
[7] = normalized to 3 μM reference compound with anti-CD3 plus anti-CD28 as 100% activation

Row | Structure (SMILES) | IC50 ([1]; DGKζ liposome (LIPGLO) assay) [nM] | IC50 ([3]; DGKα liposome (LIPGLO) assay) [nM] | IC50 ([1]; liposome (LIPGLO) assay) [nM] | IC50 ([3]; liposome (LIPGLO) assay) [nM] | EC50 [2, 4] [nM] | EC50 [2, 5] [nM] | EC50 [2, 6] [nM] | EC50 [2, 7] [nM]
1 | C[C@@H]1CN(c2c(C#N)c(=O)n(C)c3ccc(C#N)nc23)CCN1Cc1ccc(C(C)(C)C)cc1 [Example 1013] | 47000 | 7300 | – | – | 1400 | – | – | –
2 | C[C@@H]1CN(c2c(C#N)c(=O)n(C)c3ccc(C#N)nc23)CCN1Cc1ccccc1C(F)(F)F [Example 1014] | 1900 | 1300 | – | – | 20000 | – | – | –
3 | C[C@@H]1CN(c2c(C#N)c(=O)n(C)c3ccc(C#N)nc23)CCN1Cc1ccc(Cl)c(F)c1 [Example 1015] | 8200 | 1400 | – | – | 2700 | – | – | –
4 | C[C@@H]1CN(c2c(C#N)c(=O)n(C)c3ccc(C#N)nc23)CCN1C(c1ccc(F)cc1)c1cnn(C)c1 (stereo partly drawn) [Example 1017] | 8400 | 7200 | – | – | – | 3300 | – | –
5 | C[C@@H]1CN(c2c(C#N)c(=O)n(C)c3ccc(C#N)nc23)CCN1C(c1ccc(F)cc1)c1cocn1 (stereo partly drawn) [Example 1022] | 12000 | 2900 | – | – | 2500 | – | – | –
6 | C[C@@H]1CN(c2c(C#N)c(=O)n(C)c3ccc(C#N)nc23)CCN1C(c1ccc(F)cc1)c1cocn1 (stereo partly drawn) [Example 1023] | 13000 | 3600 | – | – | – | 3500 | – | –
7 | C[C@@H]1CN(c2c(C#N)c(=O)n(C)c3ccc(C#N)nc23)CCN1C(c1ccc(F)cc1)c1cnsc1 (stereo partly drawn) [Example 1028] | – | – | 7000 | 1500 | – | – | 2800 | –
8 | CC[C@H]1CN(C(c2ccc(Cl)cc2)c2ccc(Cl)cc2)[C@H](CC)CN1c1cc(=O)n(C)c2ccc(C#N)nc12 [Example 1032] | – | – | 280 | 310 | – | – | 280 | –
9 | CC[C@H]1CN(C(c2ccc(F)cc2)c2ccc(C#N)cc2)[C@H](CC)CN1c1cc(=O)n(C)c2ccc(C#N)nc12 (stereo partly drawn) [Example 1036] | – | – | 520 | 300 | – | – | – | 200
10 | CC[C@H]1CN(C(c2ccc(F)cc2)c2ccc(C(F)(F)F)cn2)[C@H](CC)CN1c1cc(=O)n(C)c2ccc(C#N)nc12 (stereo partly drawn) [Example 1039] | – | – | 87 | 110 | – | – | 91 | –
11 | CC[C@H]1CN(C(c2cccc(F)c2)c2ccc(OC)cn2)[C@H](CC)CN1c1cc(=O)n(C)c2ccc(C#N)nc12 (stereo partly drawn) [Example 1048] | – | – | 150 | 83 | – | – | 190 | –
12 | CC[C@@H]1CN(c2cc(=O)n(C)c3ccc(C#N)nc23)[C@@H](CC)CN1Cc1ccc(F)cc1F [Example 1062] | – | – | 76 | 58 | – | – | 110 | –
13 | CC[C@@H]1CN(c2cc(=O)n(C)c3ccc(C#N)nc23)[C@@H](CC)CN1Cc1ccc2c(c1)OC(F)(F)O2 [Example 1063] | – | – | 1800 | 1100 | – | – | 430 | –
14 | CC[C@@H]1CN(c2cc(=O)n(C)c3ccc(C#N)nc23)[C@@H](C)CN1Cc1ccccc1 [Example 1076] | – | – | 1000 | 110 | – | – | 1700 | –
15 | CC[C@@H]1CN(c2cc(=O)n(C)c3ccc(C#N)nc23)[C@@H](C)CN1Cc1ccc(F)cc1Cl [Example 1078] | – | – | 110 | 2700 | – | – | 970 | –
16 | CC[C@@H]1CN(c2cc(=O)n(C)c3ccc(C#N)nc23)[C@@H](C)CN1Cc1ccc(F)cc1 [Example 1079] | – | – | 89 | 28 | – | – | 650 | –
17 | CC[C@@H]1CN(c2cc(=O)n(C)c3ccc(C#N)nc23)[C@@H](C)CN1Cc1c(F)cc(F)cc1F [Example 1080] | – | – | 690 | 640 | – | – | 240 | –
18 | CC[C@@H]1CN(c2cc(=O)n(C)c3ccc(C#N)nc23)[C@@H](C)CN1C(c1ccc(Cl)cc1)c1ccc(F)cn1 (stereo partly drawn) [Example 1111] | – | – | 78 | 200 | – | – | – | 310
19 | CC[C@@H]1CN(c2cc(=O)n(C)c3ccc(C#N)nc23)[C@@H](C)CN1C(c1ccc(F)cc1)c1cccc(C(F)(F)F)n1 (stereo partly drawn) [Example 1112] | – | – | 150 | 1200 | – | – | – | 170
20 | CC[C@@H]1CN(c2cc(=O)n(C)c3ccc(C#N)nc23)[C@@H](C)CN1C(c1ccc(F)cc1)c1cccc(C(F)(F)F)n1 (stereo partly drawn) [Example 1113] | – | – | 310 | 620 | – | – | – | 1000
21 | CC[C@H]1CN(C(c2ccc(C)cc2)c2ccc(C)cc2)[C@H](C)CN1c1cc(=O)n(C)c2ccc(C#N)nc12 [Example 1119] | – | – | 430 | 1000 | – | – | 17000 | –
22 | CC[C@H]1CN(C(c2ccc(F)cc2)c2ccc(C#N)cc2)[C@H](C)CN1c1cc(=O)n(C)c2ccc(C#N)nc12 (stereo partly drawn) [Example 1123] | – | – | 4700 | 1200 | – | – | 2600 | –
23 | CC[C@H]1CN(Cc2cc(F)c(F)c(F)c2)[C@H](C)CN1c1cc(=O)n(C)c2ccc(C#N)nc12 [Example 1149] | – | – | 3500 | 650 | – | – | 510 | –
24 | Cc1ccc(C(c2cccc(F)c2)N2C[C@H](C)N(c3cc(=O)n(C)c4ccc(C#N)nc34)C[C@H]2CO)nc1 (stereo partly drawn) [Example 1154] | – | – | 50000 | 8100 | – | – | 2400 | –
25 | COC[C@@H]1CN(c2cc(=O)n(C)c3ccc(C#N)nc23)[C@@H](C)CN1Cc1cc(F)c(F)c(F)c1 [Example 1161] | – | – | 330 | 18000 | – | – | 15000 | –
26 | CC(=O)NC[C@@H]1CN(c2cc(=O)n(C)c3ccc(C#N)nc23)[C@@H](C)CN1C(c1ccc(F)cc1)c1ccc(F)cc1 [Example 1165, N-(((2R,5S)-1-(bis(4-fluorophenyl)methyl)-4-(6-cyano-1-methyl-2-oxo-1,2-dihydro-1,5-naphthyridin-4-yl)-5-methylpiperazin-2-yl)methyl)acetamide] | – | – | 1100 | 3400 | – | – | 240 | –

Continued, in another order:

Row | IC50 ([1]; DGKζ liposome (LIPGLO) assay) [nM] | IC50 ([3]; DGKα liposome (LIPGLO) assay) [nM] | IC50 ([1]; liposome (LIPGLO) assay) [nM] | IC50 ([3]; liposome (LIPGLO) assay) [nM] | Structure (SMILES) | EC50 [2, 4] [nM] | EC50 [2, 5] [nM] | EC50 [2, 6] [nM] | EC50 [2, 7] [nM]
27 | 7500 | 3300 | – | – | C[C@@H]1CN(c2c(C#N)c(=O)n(C)c3ccc(C#N)nc23)CCN1C(c1ccc(F)cc1)c1cnn(C)c1 (stereo partly drawn) [Example 1016] | 3300 | – | – | –
28 | – | – | 1100 | 370 | CC[C@H]1CN(C(c2ccc(F)cc2)c2ccc(C#N)cc2)[C@H](CC)CN1c1cc(=O)n(C)c2ccc(C#N)nc12 (stereo partly drawn) [Example 1035] | – | – | 290 | –
29 | – | – | 59 | 42 | CC[C@H]1CN(C(c2ccc(F)cc2)c2ccc(C(F)(F)F)cn2)[C@H](CC)CN1c1cc(=O)n(C)c2ccc(C#N)nc12 (stereo partly drawn) [Example 1040] | – | – | – | 57
30 | – | – | 47 | 79 | CC[C@H]1CN(C(c2ccc(F)cc2)c2nc(C3CC3)cs2)[C@H](CC)CN1c1cc(=O)n(C)c2ccc(C#N)nc12 (stereo partly drawn) [Example 1067] | – | – | 11 | –
31 | – | – | 320 | 460 | CC[C@@H]1CN(c2cc(=O)n(C)c3ccc(C#N)nc23)[C@@H](C)CN1Cc1ccc(F)cc1F [Example 1077] | – | – | 140 | –
32 | – | – | 680 | 1500 | CC[C@@H]1CN(c2cc(=O)n(C)c3ccc(C#N)nc23)[C@@H](C)CN1Cc1ccc(OC(F)(F)F)cc1OC [Example 1081] | – | – | 250 | –
33 | – | – | 1500 | 5200 | CC[C@@H]1CN(c2cc(=O)n(C)c3ccc(C#N)nc23)[C@@H](C)CN1Cc1ccc2c(c1)OC(F)(F)O2 [Example 1082] | – | – | 580 | –
34 | – | – | 210 | 400 | CC[C@@H]1CN(c2cc(=O)n(C)c3ccc(C#N)nc23)[C@@H](C)CN1C(c1ccc(F)cc1)c1ccc(F)cc1 [Example 1097] | – | – | 660 | –
35 | – | – | 300 | 570 | CC[C@@H]1CN(c2cc(=O)n(C)c3ccc(C#N)nc23)[C@@H](C)CN1C(c1ccc(C)cc1)c1ccc(C)cc1 [Example 1098] | – | – | 150 | –
36 | – | – | 240 | 350 | CC[C@@H]1CN(c2cc(=O)n(C)c3ccc(C#N)nc23)[C@@H](C)CN1C(c1ccc(F)cc1)c1ccc(Cl)cc1 (stereo partly drawn) [Example 1101] | – | – | – | 230
37 | – | – | 17 | 15 | CC[C@@H]1CN(c2cc(=O)n(C)c3ccc(C#N)nc23)[C@@H](C)CN1C(c1ccc(F)cc1)c1nc(C2CC2)no1 (stereo partly drawn) [Example 1117] | – | – | 150 | –
38 | – | – | 580 | 400 | CC[C@H]1CN(C(c2ccc(F)cc2)c2ccc(F)cc2)[C@H](C)CN1c1cc(=O)n(C)c2ccc(C#N)nc12 [Example 1118] | – | – | 360 | –
39 | – | – | 3100 | 880 | CC[C@H]1CN(C(c2ccc(F)cc2)c2ccc(C#N)cc2)[C@H](C)CN1c1cc(=O)n(C)c2ccc(C#N)nc12 (stereo partly drawn) [Example 1124] | – | – | – | 1400
40 | – | – | 2400 | 680 | CC[C@H]1CN(C(c2ccc(F)cc2)c2ccc(Cl)cc2)[C@H](C)CN1c1cc(=O)n(C)c2ccc(C#N)nc12 (stereo partly drawn) [Example 1127] | – | – | 520 | –
41 | – | – | 940 | 730 | CC[C@H]1CN(C(c2ccc(F)cc2)c2ccc(Cl)cc2)[C@H](C)CN1c1cc(=O)n(C)c2ccc(C#N)nc12 (stereo partly drawn) [Example 1128] | – | – | – | 550
42 | – | – | 160 | 38 | CC[C@H]1CN(Cc2c(F)cc(F)cc2F)[C@H](C)CN1c1cc(=O)n(C)c2ccc(C#N)nc12 [Example 1148] | – | – | 1200 | –
43 | – | – | 370 | 1800 | COC(=O)NC[C@@H]1CN(c2cc(=O)n(C)c3ccc(C#N)nc23)[C@@H](C)CN1C(c1ccc(F)cc1)c1ccc(F)cc1 [Example 1166, methyl (((2R,5S)-1-(bis(4-fluorophenyl)methyl)-4-(6-cyano-1-methyl-2-oxo-1,2-dihydro-1,5-naphthyridin-4-yl)-5-methylpiperazin-2-yl)methyl)carbamate] | – | – | 350 | –
